Measurements reported in patent US11999794B2, “Human mesothelin chimeric antigen receptors and uses thereof” (Novartis AG, priority 2013, dated 2024).
Marks after values point to notes of the source that are not given here.

B1: M5: human anti-mesothelin scFv SEQ ID NO: 43; full CAR SEQ ID NO: 67 (protein)
scFv: QVQLVQSGAEVEKPGASVKVSCKASGYTFTDYYMHWVRQAPGQGLEWMGWINPNSGGTNYAQKFQGRVTMTRDTSISTAYMELSRLRSDDTAVYYCASGWDFDYWGQGTLVTVSSGGGGSGGGGSGGGGSGGGGSDIVMTQSPSSLSASVGDRVTITCRASQSIRYYLSWYQQKPGKAPKLLIYTASILQNGVPSRFSGSGSGTDFTLTISSLQPEDFATYYCLQTYTTPDFGPGTKVEIK

Key:
[1] = test system: A/H3N2 strain A/Victoria/361/11; experiment: HI titers and seroconversion, heterologous strain; assay type: in vivo, human; conditions: for Percentage of subjects who seroconvert to heterologous strain A/H3N2 A/Victoria/361/11: 4 weeks after seasonal influenza vaccination, odds ratio vs placebo p < 0.05
[2] = target: T1, hMSLN296-588 (Homo sapiens, UniProt Q13421, N388Q/N488Q/N515Q); experiment: Hydrogen-deuterium exchange mass spectrometry epitope mapping; assay type: binding; conditions: amino acid position 297 to 464
T1 construct: secretion signal […]; made in house; host or cells: Expi293 (alone, or co-expressed with scFv M5)
Text: Hydrogen-deuterium exchange (HDx) in combination with mass spectrometry (MS) (Woods V L, Hamuro Y (2001) High Resolution, High-Throughput Amide Deuterium Exchange-Mass Spectrometry (DXMS) Determination of Protein Binding Site Structure and Dynamics: Utility in Pharmaceutical Design. J. Cell. Biochem. Supp.; 84(37): 89-98.) was used to map the putative binding site of scFv antibodies M5 and SS1 on human mesothelin(296-588), referred to herein as hMSLN296-588 (SEQ ID No 278). In HDx, exchangeable amide hydrogens of proteins are replaced by deuterium. This process is sensitive to protein structure/dynamics and solvent accessibility and, therefore, able to report on locations that undergo a decrease in deuterium uptake upon ligand binding.
HDx/MS experiments were performed using methods similar to those described in the literature (Chalmers M J, Busby S A, Pascal B D, He Y, Hendrickson C L, Marshall A G, Griffin P R (2006) Probing protein ligand interactions by automated hydrogen/deuterium exchange mass spectrometry. Anal. Chem.; 78(4): 1005-1014.Chalmers, 2006). The experiments were performed on a Waters HDx/MS platform, which included a LEAP autosampler, nanoACQUITY UPLC, and Synapt G2 mass spectrometer. […]

T1 sequence (Q13421 with tags, fused parts or gaps N388Q/N488Q/N515Q): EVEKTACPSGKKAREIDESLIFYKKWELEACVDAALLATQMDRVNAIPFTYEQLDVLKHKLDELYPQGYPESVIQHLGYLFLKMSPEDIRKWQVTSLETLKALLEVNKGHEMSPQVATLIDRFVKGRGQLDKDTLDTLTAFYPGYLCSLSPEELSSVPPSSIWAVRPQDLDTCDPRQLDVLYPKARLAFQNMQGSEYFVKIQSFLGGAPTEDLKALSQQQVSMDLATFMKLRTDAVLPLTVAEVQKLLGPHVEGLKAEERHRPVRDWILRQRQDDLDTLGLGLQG

Molecule	increase in seroconversion rate, H3N2 heterologous strain ([1]; 5 and 20 mg weekly dosing cohorts)	Percentage of subjects who seroconvert to heterologous strain A/H3N2 A/Victoria/361/11 ([1]; RAD001 5 mg weekly) [%*]	Percentage of subjects who seroconvert to heterologous strain A/H3N2 A/Victoria/361/11 ([1]; RAD001 20 mg weekly) [% *]	H3N2 seroconversion rate, heterologous strain ([1]; pooled RAD001 cohorts, p=0.007 vs placebo) [%]	mesothelin peptides significantly protected from deuterium uptake [2]
CO[C@H]1C[C@@H]2CC[C@@H](C)[C@@](O)(O2)C(=O)C(=O)N2CCCC[C@H]2C(=O)O[C@H]([C@H](C)C[C@@H]2CC[C@@H](OCCO)[C@H](OC)C2)CC(=O)[C@H](C)/C=C(\C)[C@@H](O)[C@@H](OC)C(=O)[C@H](C)C[C@H](C)/C=C/C=C/C=C/1C [RAD001, (1R,9S,12S,15R,16E,18R,19R,21R,23 S,24E,26E,28E,30S,32S,35R)-1,18-dihydroxy-12-{(1R)-2-[(1 S,3R,4R)-4-(2-hydroxyethoxy)-3-methoxycyclohexyl]-1-methylethyl}-19,30-dimethoxy-15,17,21,23,29,35-hexamethyl-11,36-dioxa-4-aza-tricyclo[30.3.1.04,9]hexatriaconta-16,24,26,28-tetraene-2,3,10,14,20-pentaone]	statistically significant	39	40	39	–
B1	–	–	–	–	no protection
